Data from patent publication US20230293525A1, “METHODS AND COMPOSITIONS FOR THE TREATMENT OF VIRAL INFECTIONS” (priority 2020, published 2023).

System: minor spliceosome snRNAs including U11, U12, U6atac, and U4atac
Experiment: qPCR of minor spliceosome snRNAs in HEK 293 cells treated with Tenovin 1
Assay type: cell-based
Settings: 10 μM, incubated 24 hours, qPCR normalized to RN7SK, versus DMSO

CC(=O)Nc1ccc(NC(=S)NC(=O)c2ccc(C(C)(C)C)cc2)cc1 [Tenovin 1]
levels of minor spliceosome snRNAs U11, U12, U6atac and U4atac (qPCR): successfully downregulates
